Source: ChEMBL document CHEMBL1782052, “Artemisinin-dipeptidyl vinyl sulfone hybrid molecules: design, synthesis and preliminary SAR for antiplasmodial activity and falcipain-2 inhibition” (Bioorg Med Chem Lett, 2009)

Tests used:
[1] = tested on: Plasmodium falciparum; test: Antiplasmodial activity against chloroquine-sensitive Plasmodium falciparum 3D7; assay type: functional, organism-based
[2] = tested on: Plasmodium falciparum; test: Antiplasmodial activity against chloroquine and pyrimethamine-resistant Plasmodium falciparum V1/S; assay type: functional, organism-based
[3] = tested on: Plasmodium falciparum; test: Antiplasmodial activity against atovaquone-resistant Plasmodium falciparum FCR3; assay type: functional, organism-based
[4] = tested on: Plasmodium falciparum; test: Antiplasmodial activity against chloroquine-resistant Plasmodium falciparum W2 synchronized ring stage parasites infected in erythrocytes assessed as reduction in parasitemia after 48 hrs by Giemsa staining; assay type: functional, organism-based; conditions: W2, 48 h
[5] = Inhibition of Plasmodium falciparum recombinant falcipain-2 incubated for 30 mins at room temperature before addition of substrate benzoxycarbonyl-Leu-Arg-7-amino-4-methyl-coumarin by spectrofluorometry
[6] = Inhibition of Plasmodium chabaudi recombinant chabaupain expressed in Escherichia coli
[7] = tested on: Plasmodium falciparum; test: Antiplasmodial activity against chloroquine-sensitive and mefloquine-resistant Plasmodium falciparum D6; assay type: functional, organism-based
[8] = Inhibition of falcipain-2 in Plasmodium falciparum trophozoite extracts incubated for 30 mins at room temperature before addition of substrate benzyloxycarbonyl-Phe-Arg-7-amino-4-methyl-coumarin by spectrofluorometry
[9] = tested on: Plasmodium falciparum; test: Antiplasmodial activity against Plasmodium falciparum Itg2 synchronized ring stage parasites infected in erythrocytes assessed as reduction in parasitemia after 48 hrs by Giemsa staining; assay type: functional, organism-based; conditions: Itg2, 48 h

SMILES: C[C@H]1[C@@H](OCc2ccc(C(=O)N[C@@H](Cc3ccccc3)C(=O)N[C@H](/C=C/S(C)(=O)=O)CCc3ccccc3)cc2)O[C@@H]2O[C@@]3(C)CC[C@H]4[C@H](C)CC[C@@H]1[C@@]24OO3
- IC50 [1]: 2.5 nM
- IC50 [2]: 2.25 nM
- IC50 [3]: 2 nM
- IC50 [4]: 4.81 nM
- IC50 [5]: 21600 nM

SMILES: C[C@H]1[C@@H](OCc2ccc(C(=O)N[C@@H](Cc3ccccc3)C(=O)N[C@H](/C=C/S(=O)(=O)c3ccccc3)CCc3ccccc3)cc2)O[C@@H]2O[C@@]3(C)CC[C@H]4[C@H](C)CC[C@@H]1[C@@]24OO3
- IC50 [6]: 538 nM
- IC50 [4]: 3.94 nM
- IC50 [5]: 9220 nM

SMILES: CC(C)C[C@H](NC(=O)OC(C)(C)C)C(=O)N[C@H](/C=C/S(=O)(=O)c1ccccc1)CCc1ccccc1
- IC50 [4]: > 10000 nM
- IC50 [5]: 210 nM

SMILES: C[C@@H]1CC[C@H]2[C@@H](C)C(=O)O[C@@H]3O[C@@]4(C)CC[C@@H]1[C@]32OO4 [ARTEMISININ]
- IC50 [1]: 9.71 nM
- IC50 [2]: 4.24 nM
- IC50 [3]: 5.38 nM
- IC50 [4]: 12 nM

SMILES: C[C@H]1[C@@H](OCc2ccc(C(=O)NCC(=O)N[C@H](/C=C/S(=O)(=O)c3ccccc3)Cc3ccccc3)cc2)O[C@@H]2O[C@@]3(C)CC[C@H]4[C@H](C)CC[C@@H]1[C@@]24OO3
- IC50 [1]: 3.11 nM
- IC50 [2]: 1.59 nM
- IC50 [6]: 56800 nM
- IC50 [3]: 1.75 nM
- IC50 [4]: 4.09 nM
- IC50 [5]: 16500 nM
- IC50 [7]: 4.71 nM

SMILES: CC(C)C[C@H](NC(=O)c1ccc(CO[C@H]2O[C@@H]3O[C@@]4(C)CC[C@H]5[C@H](C)CC[C@@H]([C@H]2C)[C@@]35OO4)cc1)C(=O)N[C@H](/C=C/S(=O)(=O)c1ccccc1)CCc1ccccc1
- IC50 [6]: 2290 nM
- IC50 [4]: 2.08 nM
- IC50 [5]: 4950 nM

SMILES: CC(C)C[C@H](NC(=O)c1ccc(CO[C@H]2O[C@@H]3O[C@@]4(C)CC[C@H]5[C@H](C)CC[C@@H]([C@H]2C)[C@@]35OO4)cc1)C(=O)N[C@H](/C=C/S(C)(=O)=O)CCc1ccccc1
- IC50 [1]: 2.48 nM
- IC50 [2]: 1.65 nM
- IC50 [3]: 1.89 nM
- IC50 [4]: 4.21 nM
- IC50 [5]: 350 nM
- IC50 [7]: 4.96 nM

SMILES: C[C@@H]1[C@H](OCc2ccc(C(=O)O)cc2)O[C@@H]2O[C@@]3(C)CC[C@@H]4[C@@H](C)CC[C@@H]1[C@]24OO3 (stereo in doubt) [ARTELINIC ACID]
- IC50 [4]: 5.66 nM

SMILES: C[C@H]1[C@@H](OCc2ccc(C(=O)N[C@@H](Cc3ccccc3)C(=O)N[C@H](/C=C/S(=O)(=O)c3ccccc3)Cc3ccccc3)cc2)O[C@@H]2O[C@@]3(C)CC[C@H]4[C@H](C)CC[C@@H]1[C@@]24OO3
- IC50 [6]: 400 nM
- IC50 [4]: 2.27 nM
- IC50 [5]: 22400 nM

SMILES: CC(C)C[C@H](NC(=O)[C@H]1O[C@@H]1C(=O)O)C(=O)NCCCCN=C(N)N [E-64]
- IC50 [6]: 9 nM
- IC50 [5]: 84 nM

SMILES: CC(C)C[C@H](NC(=O)N1CCOCC1)C(=O)N[C@H](/C=C/S(=O)(=O)c1ccccc1)CCc1ccccc1
- IC50 [8]: 3 nM
- IC50 [9]: 22 nM
